#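 At the GI50, growth is halved. TGI denotes the concentration required for complete inhibition of growth.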
# Assays:
# Assay in all cases: DTP human tumour cell line panel, 384-well format
# HCC-2998 colon = system: HCC-2998 colon
# SK-MEL-28 melanoma = system: SK-MEL-28 melanoma
# NCI-H23 lung = system: NCI-H23 lung
# K-562 leukemia = system: K-562 leukemia
# NCI-H226 lung = system: NCI-H226 lung
# BT-549 breast = system: BT-549 breast
# COLO 205 colon = system: COLO 205 colon
# SNB-75 CNS = system: SNB-75 CNS
# SW-620 colon = system: SW-620 colon
# UACC-62 melanoma = system: UACC-62 melanoma
# SF-268 CNS = system: SF-268 CNS
# MOLT-4 leukemia = system: MOLT-4 leukemia
# M14 melanoma = system: M14 melanoma
# EKVX NSCLC = system: EKVX NSCLC
# SK-MEL-5 melanoma = system: SK-MEL-5 melanoma
# CAKI-1 renal = system: CAKI-1 renal
# UACC-257 melanoma = system: UACC-257 melanoma
# SK-MEL-2 melanoma = system: SK-MEL-2 melanoma
# SF-295 CNS = system: SF-295 CNS
# SNB-19 CNS = system: SNB-19 CNS
# HOP-92 NSCLC = system: HOP-92 NSCLC
# ACHN renal = system: ACHN renal
# NCI-H322M lung = system: NCI-H322M lung
# HS 578T breast = system: HS 578T breast
# A549 NSCLC = system: A549 NSCLC
# SN12C renal = system: SN12C renal
# HL-60(TB) leukemia = system: HL-60(TB) leukemia
# NCI-H522 lung = system: NCI-H522 lung
# OVCAR-8 ovarian = system: OVCAR-8 ovarian
# OVCAR-4 ovarian = system: OVCAR-4 ovarian
# HCT-116 colon = system: HCT-116 colon
# CCRF-CEM leukemia = system: CCRF-CEM leukemia
# SF-539 CNS = system: SF-539 CNS
# OVCAR-3 ovarian = system: OVCAR-3 ovarian
# RPMI-8226 leukemia = system: RPMI-8226 leukemia
# LOX IMVI melanoma = system: LOX IMVI melanoma
# NCI-H460 NSCLC = system: NCI-H460 NSCLC
# RXF 393 renal = system: RXF 393 renal
# TK-10 renal = system: TK-10 renal
# HCT-15 colon = system: HCT-15 colon
# IGROV1 ovarian = system: IGROV1 ovarian
# T-47D breast = system: T-47D breast
# NCI/ADR-RES ovarian = system: NCI/ADR-RES ovarian
# MDA-MB-231 breast = system: MDA-MB-231 breast
# KM12 colon = system: KM12 colon
# MDA-MB-468 breast = system: MDA-MB-468 breast
# MDA-MB-435 melanoma = system: MDA-MB-435 melanoma
# HT29 colon = system: HT29 colon
# U251 glioblastoma = system: U251 glioblastoma
# MALME-3M melanoma = system: MALME-3M melanoma
# PC-3 prostate = system: PC-3 prostate
# HOP-62 NSCLC = system: HOP-62 NSCLC
# SK-OV-3 ovarian = system: SK-OV-3 ovarian
# OVCAR-5 ovarian = system: OVCAR-5 ovarian
# DU-145 prostate = system: DU-145 prostate
# UO-31 renal = system: UO-31 renal
# A498 renal = system: A498 renal
# 786-0 renal = system: 786-0 renal
# MCF7 breast = system: MCF7 breast
structure (smiles),measurement,setting,value
Cc1c(N)nc([C@H](CC(N)=O)NC[C@H](N)C(N)=O)nc1C(=O)N[C@H](C(=O)N[C@H](C)[C@@H](O)[C@H](C)C(=O)N[C@H](C(=O)NCCc1nc(-c2nc(C(=O)NCCC[S+](C)C)cs2)cs1)[C@@H](C)O)C(OC1OC(CO)C(O)C(O)C1OC1OC(CO)C(O)C(OC(N)=O)C1O)c1cnc[nH]1 (some centres not stated),GI50,HCC-2998 colon,6.35 µM
same,TGI,HCC-2998 colon,53.3 µM
same,GI50,SK-MEL-28 melanoma,43.7 µM
same,TGI,SK-MEL-28 melanoma,> 100 µM
same,GI50,NCI-H23 lung,1.21 µM
same,TGI,NCI-H23 lung,11.9 µM
same,GI50,K-562 leukemia,8.46 µM
same,TGI,K-562 leukemia,> 79 µM
same,GI50,NCI-H226 lung,0.778 µM
same,TGI,NCI-H226 lung,9.52 µM
same,GI50,BT-549 breast,1.06 µM
same,TGI,BT-549 breast,22.4 µM
same,GI50,COLO 205 colon,2.96 µM
same,TGI,COLO 205 colon,7.57 µM
same,GI50,SNB-75 CNS,1.32 µM
same,TGI,SNB-75 CNS,6.43 µM
same,GI50,SW-620 colon,4.95 µM
same,TGI,SW-620 colon,> 100 µM
same,GI50,UACC-62 melanoma,1.26 µM
same,TGI,UACC-62 melanoma,20 µM
same,GI50,SF-268 CNS,0.6 µM
same,TGI,SF-268 CNS,8.37 µM
same,GI50,MOLT-4 leukemia,0.439 µM
same,TGI,MOLT-4 leukemia,1.53 µM
same,GI50,M14 melanoma,1.42 µM
same,TGI,M14 melanoma,23.2 µM
same,GI50,EKVX NSCLC,> 48.2 µM
same,TGI,EKVX NSCLC,> 100 µM
same,GI50,SK-MEL-5 melanoma,0.211 µM
same,TGI,SK-MEL-5 melanoma,1.17 µM
same,GI50,CAKI-1 renal,1.43 µM
same,TGI,CAKI-1 renal,> 44.8 µM
same,GI50,UACC-257 melanoma,> 68 µM
same,TGI,UACC-257 melanoma,> 100 µM
same,GI50,SK-MEL-2 melanoma,11.1 µM
same,TGI,SK-MEL-2 melanoma,25.5 µM
same,GI50,SF-295 CNS,0.128 µM
same,TGI,SF-295 CNS,0.824 µM
same,GI50,SNB-19 CNS,6.76 µM
same,TGI,SNB-19 CNS,> 52 µM
same,GI50,HOP-92 NSCLC,0.648 µM
same,TGI,HOP-92 NSCLC,23.6 µM
same,GI50,ACHN renal,0.164 µM
same,TGI,ACHN renal,0.929 µM
same,GI50,NCI-H322M lung,26.1 µM
same,TGI,NCI-H322M lung,> 100 µM
same,GI50,HS 578T breast,0.266 µM
same,TGI,HS 578T breast,5.4 µM
same,GI50,A549 NSCLC,1.65 µM
same,TGI,A549 NSCLC,> 92.1 µM
same,GI50,SN12C renal,1.62 µM
same,TGI,SN12C renal,34.9 µM
same,GI50,HL-60(TB) leukemia,2.66 µM
same,TGI,HL-60(TB) leukemia,7.29 µM
same,GI50,NCI-H522 lung,2.21 µM
same,TGI,NCI-H522 lung,16.4 µM
same,GI50,OVCAR-8 ovarian,0.41 µM
same,TGI,OVCAR-8 ovarian,21 µM
same,GI50,OVCAR-4 ovarian,13 µM
same,TGI,OVCAR-4 ovarian,> 54.7 µM
same,GI50,HCT-116 colon,0.071 µM
same,TGI,HCT-116 colon,19 µM
same,GI50,CCRF-CEM leukemia,2.08 µM
same,TGI,CCRF-CEM leukemia,6.72 µM
same,GI50,SF-539 CNS,0.234 µM
same,TGI,SF-539 CNS,4.56 µM
same,GI50,OVCAR-3 ovarian,3.67 µM
same,TGI,OVCAR-3 ovarian,13.7 µM
same,GI50,RPMI-8226 leukemia,7.9 µM
same,TGI,RPMI-8226 leukemia,> 100 µM
same,GI50,LOX IMVI melanoma,0.57 µM
same,TGI,LOX IMVI melanoma,12.3 µM
same,GI50,NCI-H460 NSCLC,0.331 µM
same,TGI,NCI-H460 NSCLC,14.6 µM
same,GI50,RXF 393 renal,2.2 µM
same,TGI,RXF 393 renal,10.2 µM
same,GI50,TK-10 renal,8.01 µM
same,TGI,TK-10 renal,> 42.1 µM
same,GI50,HCT-15 colon,0.4 µM
same,TGI,HCT-15 colon,16.9 µM
same,GI50,IGROV1 ovarian,3.19 µM
same,TGI,IGROV1 ovarian,43.6 µM
same,GI50,T-47D breast,9.71 µM
same,TGI,T-47D breast,> 82.5 µM
same,GI50,NCI/ADR-RES ovarian,0.273 µM
same,TGI,NCI/ADR-RES ovarian,5.9 µM
same,GI50,MDA-MB-231 breast,31.2 µM
same,TGI,MDA-MB-231 breast,> 100 µM
same,GI50,KM12 colon,1.78 µM
same,TGI,KM12 colon,27.8 µM
same,GI50,MDA-MB-468 breast,0.97 µM
same,TGI,MDA-MB-468 breast,4.28 µM
same,GI50,MDA-MB-435 melanoma,71.3 µM
same,TGI,MDA-MB-435 melanoma,> 100 µM
same,GI50,HT29 colon,16.9 µM
same,TGI,HT29 colon,> 100 µM
same,GI50,U251 glioblastoma,0.522 µM
same,TGI,U251 glioblastoma,11.2 µM
same,GI50,MALME-3M melanoma,18.2 µM
same,TGI,MALME-3M melanoma,> 100 µM
same,GI50,PC-3 prostate,46.5 µM
same,TGI,PC-3 prostate,> 100 µM
same,GI50,HOP-62 NSCLC,0.169 µM
same,TGI,HOP-62 NSCLC,1.19 µM
same,GI50,SK-OV-3 ovarian,4.84 µM
same,TGI,SK-OV-3 ovarian,> 64.7 µM
same,GI50,OVCAR-5 ovarian,6.43 µM
same,TGI,OVCAR-5 ovarian,> 76 µM
same,GI50,DU-145 prostate,1.71 µM
same,TGI,DU-145 prostate,> 20.5 µM
same,GI50,UO-31 renal,2.08 µM
same,TGI,UO-31 renal,> 35.3 µM
same,GI50,A498 renal,1.51 µM
same,TGI,A498 renal,25.9 µM
same,GI50,786-0 renal,0.945 µM
same,GI50,MCF7 breast,10 µM
same,TGI,MCF7 breast,> 100 µM
